Measurements from US5449612A, “Process for identifying candida by means of chromogenic substances” (Serbio, priority 1990, dated 1995).
Non-standard residues stand in square brackets, D forms with d. Residues, ends and D or L forms follow the SMILES beside them. *: point of attachment. Hyp = O=C(O)[C@@H]1C[C@@H](O)CN1; pNA = O=[N+]([O-])c1ccc(N*)cc1; Phg = N[C@H](C(=O)O)c1ccccc1; Pip = O=C(O)[C@@H]1CCCCN1; Boc = CC(C)(C)OC(=O)*

How the values were obtained:
[1] = system: Candida albicans; assay: Tests on substrates against Candida albicans, colour reading on buffered gelose; type: cell-based; conditions: Table I; for Reading at 24 h: medium pH 6.0, YNB, glucose, agar, gentamycin, coloration or fluorescence
[2] = system: Candida tropicalis; assay: Tests on substrates against Candida tropicalis, colour reading on buffered gelose; type: cell-based; conditions: for C. TROPICALIS reading at 24 h: Table III, medium pH 6.0; for Reading at 24 h: Table II, medium pH 6.0, YNB, glucose, agar, gentamycin
[3] = system: T. glabrata; assay: Tests on substrates against T. glabrata, colour reading on buffered gelose; as to T. GLABRATA reading at 24 h: key: -: none; +: weak; ++: moderate; +++: intense; ++++: very intense; type: cell-based, Torulopsis glabrata; conditions: for T. GLABRATA reading at 24 h: pH 6
[4] = system: Candida krusei; assay: Tests on substrates against Candida krusei, colour reading on buffered gelose; type: cell-based; conditions: Table IV; medium pH 6.0; also: key: -: none; +: weak; ++: moderate; +++: intense; ++++: very intense
[5] = system: Candida guillermondii; assay: Tests on substrates against Candida guillermondii; set-up: Reading at 24 h: key to the marks not given beside the values
[6] = system: C. tropicalis; assay: Diagnosis from isolated colonies on gelose 2/5; type: cell-based, Candida tropicalis

CC(C)(C)OC(=O)NCC(=O)N1CCC[C@H]1C(=O)N[C@@H](CCCNC(=N)N)C(=O)Nc1ccc([N+](=O)[O-])cc1 [Boc-Gly-L-Pro-L-Arg-pNA.AcOH] (Boc-Gly-Pro-Arg-pNA)
Reading at 24 h [1]: ++
Specificity: interference with C. tropicalis ([2]; Table I): (b)
C. TROPICALIS reading at 24 h [2]: +
Specificity: interference with C. tropicalis ([2]; Table IV): (b)
Specificity: interference with T. glabrata [3]: (e) and (f)
T. GLABRATA reading at 24 h [3]: +++
Reading at 24 h [4]: -
Specificity: interference with C. guillermondii ([5]; Table I): (d)

CC(C)(C)OC(=O)N1C[C@H](O)C[C@H]1C(=O)N1CCC[C@H]1C(=O)N[C@@H](CCCNC(=N)N)C(=O)Nc1ccc([N+](=O)[O-])cc1 [Boc-L-4Hyp-L-Pro-L-Arg-pNA.AcOH] (Boc-[Hyp]-Pro-Arg-pNA)
Reading at 24 h [1]: ++++
Specificity: interference with C. tropicalis ([2]; Table I): (b)

CC(C)C[C@H](NC(=O)OC(C)(C)C)C(=O)N[C@@H](CO)C(=O)N[C@H](C(=O)N[C@@H](CCCNC(=N)N)C(=O)Nc1ccc([N+](=O)[O-])cc1)[C@@H](C)O [Boc-L-Leu-L-Ser-L-Thr-L-Arg-pNA.AcOH] (Boc-LSTR-pNA)
Specificity: interference with C. tropicalis ([2]; Table V): (c)
Reading at 24 h ([5]; Table V): ++++

CC(=O)O.N=C(N)NCCC[C@H](NC(=O)OCc1ccccc1)C(=O)Nc1ccc([N+](=O)[O-])cc1 [Cbo-L-Arg-pNA.AcOH]
Reading at 24 h [1]: -

O=C(Nc1ccc([N+](=O)[O-])cc1)[C@@H]1CCCN1C(=O)OCc1ccccc1 [Cbo-L-Pro-pNA]
Reading at 24 h [1]: -

N=C(N)NCCC[C@H](NC(=O)[C@H]1CCCN1C(=O)[C@H]1CCCN1)C(=O)Nc1ccc([N+](=O)[O-])cc1 [H-D-Pro-D-Pro-L-Arg-pNA.2AcOH] (H-[dP]-[dP]-Arg-pNA)
Reading at 24 h [2]: -

N=C(N)NCCC[C@H](NC(=O)[C@@H]1CCCN1C(=O)CNC(=O)[C@H]1CCCN1)C(=O)Nc1ccc([N+](=O)[O-])cc1 [H-D-Pro-Gly-L-Pro-L-Arg-pNA.2AcOH] (H-[dP]GPR-pNA)
C. TROPICALIS reading at 24 h [2]: +
T. GLABRATA reading at 24 h [3]: +

N=C(N)NCCC[C@H](NC(=O)[C@@H](NC(=O)[C@H]1CCCN1)c1ccccc1)C(=O)Nc1ccc([N+](=O)[O-])cc1 [H-D-Pro-L-Phg-L-Arg-pNA.2AcOH] (H-[dP]-[Phg]-Arg-pNA)
C. TROPICALIS reading at 24 h [2]: ++
T. GLABRATA reading at 24 h [3]: -

N=C(N)NCCC[C@H](NC(=O)[C@@H]1CCCN1C(=O)[C@H]1CCCN1)C(=O)Nc1ccc([N+](=O)[O-])cc1 [H-D-Pro-L-Pro-L-Arg-pNA.2AcOH] (H-[dP]-Pro-Arg-pNA)
Reading at 24 h [2]: ++++

N=C(N)NCCC[C@H](NC(=O)[C@@H]1CCCN1C(=O)CNC(=O)CN)C(=O)Nc1ccc([N+](=O)[O-])cc1 [H-Gly-Gly-L-Pro-L-Arg-pNA.2AcOH] (H-GGPR-pNA)
C. TROPICALIS reading at 24 h [2]: +
Specificity: interference with C. tropicalis ([2]; Table IV): (d)
T. GLABRATA reading at 24 h [3]: +
Reading at 24 h [4]: ++

N=C(N)NCCC[C@H](NC(=O)[C@@H]1CCCCN1C(=O)CN)C(=O)Nc1ccc([N+](=O)[O-])cc1 [H-Gly-L-Pip-L-Arg-pNA.2AcOH] (H-Gly-[Pip]-Arg-pNA)
Reading at 24 h [1]: ++
Specificity: interference with C. tropicalis ([2]; Table I): (b)

NCC(=O)N1CCC[C@H]1C(=O)Nc1ccc([N+](=O)[O-])cc1 [H-Gly-L-Pro-pNA.AcOH] (H-Gly-Pro-pNA)
hydrolysis by the strains of C. tropicalis [6]: hydrolyzed

CC(=O)O.O=C(Nc1ccc([N+](=O)[O-])cc1)[C@H]1NCCC1O (stereo partly drawn) [H-L-3Hyp-pNA.AcOH]
Specificity: nonspecific for the strains of Candida albicans [1]: (a)
Reading at 24 h [1]: +++

N=C(N)NCCC[C@H](NC(=O)[C@@H]1CCCN1C(=O)[C@@H]1C[C@@H](O)CN1)C(=O)Nc1ccc([N+](=O)[O-])cc1 [H-L-4Hyp-L-Pro-L-Arg-pNA.2AcOH] (H-[Hyp]-Pro-Arg-pNA)
Reading at 24 h [1]: ++++
Specificity: interference with C. tropicalis ([2]; Table I): (b)

CC(=O)O.O=C(Nc1ccc([N+](=O)[O-])cc1)[C@@H]1CC(O)CN1 (stereo partly drawn) [H-L-4Hyp-pNA.AcOH]
Specificity: nonspecific for the strains of Candida albicans [1]: (a)
Reading at 24 h [1]: +++

C[C@H](N)C(=O)N[C@@H](C)C(=O)N1CCC[C@H]1C(=O)Nc1ccc([N+](=O)[O-])cc1 [H-L-Ala-L-Ala-L-Pro-pNA.AcOH] (H-Ala-Ala-Pro-pNA)
Specificity: nonspecific for the strains of Candida albicans [1]: (a)
Reading at 48 h ([1]; same medium, reading at 48 h): +

C[C@H](N)C(=O)N1CCC[C@H]1C(=O)Nc1ccc([N+](=O)[O-])cc1 [H-L-Ala-L-Pro-pNA.AcOH] (H-Ala-Pro-pNA)
Specificity: nonspecific for the strains of Candida albicans [1]: (a)
Reading at 24 h [1]: ++

CC(=O)O.CC(=O)O.N=C(N)NCCC[C@H](N)C(=O)Nc1ccc([N+](=O)[O-])cc1 [H-L-Arg-pNA.2AcOH]
Specificity: nonspecific for the strains of Candida albicans [1]: (a)
Reading at 24 h [1]: +++

CC(=O)O.O=C(Nc1ccc2ccccc2c1)[C@@H]1C[C@@H](O)CN1 [H-L-Hyp-NA.AcOH, reference compound]
Specificity: nonspecific for the strains of Candida albicans [1]: (a)
Reading at 24 h [1]: ++

CC(C)C[C@H](N)C(=O)NCC(=O)N[C@@H](CCCNC(=N)N)C(=O)Nc1ccc([N+](=O)[O-])cc1 [H-L-Leu-Gly-L-Arg-pNA.2AcOH] (H-Leu-Gly-Arg-pNA)
Reading at 24 h [2]: ++++

CC(=O)O.COc1cc(NC(=O)[C@@H]2CCCN2)cc2ccccc12 [H-L-Pro-(4-MeO)NA.AcOH, reference compound]
Reading at 24 h [1]: -
